The values below are quoted from earlier work in US5284873A (priority 1991, dated 1994).

The data set concerns prostate. The conditions noted are these: treatment of the α-receptors with antagonists.

For `CC(COc1ccccc1)N(CCCl)Cc1ccccc1` (centres unmarked) [phenoxybenzamine], the “improvement in prostate patients” value is “effective improvement”.
Consider `COc1cc2nc(N3CCN(C(=O)c4ccco4)CC3)nc(N)c2cc1OC` [prazosin], for which the “improvement in prostate patients” value is “effective improvement”.
